Measured values: article PMC6214487 (Journal of drug design and research, 2018)
Like-named read-outs stand apart in the source and are kept apart here.

Key:
[1] = system: HIV-1 JR-CSF; test: Replication of primary isolate in PBMCs; format: cell-based; settings: read-out: IC50 HIV-1 JR-CSF Clade B; primary human PBMCs
[2] = system: HIV-1 92RW025; test: Replication of primary isolate in PBMCs; format: cell-based; settings: read-out: IC50 HIV-1 92RW025 Clade A; primary human PBMCs
[3] = biological target: purified recombinant RT (Human immunodeficiency virus type 1 group M subtype B, UniProt P04585); test: Colorimetric reverse transcriptase assay kit; settings: CX06 15 μM, PF-74 1.5 μM, TMC278 1 nM, relative to DMSO
[4] = system: HIV-1 pseudovirus CA K70A; test: organism not typed; format: cell-based; settings: for IC50: read-out: IC50, CA K70A virus
[5] = system: HIV-1 pseudovirus CA wild-type; test: organism not typed; format: cell-based; settings: for IC50: read-out: IC50, Wild-type virus
[6] = system: PBMCs; test: Toxicity to PBMCs, MTS assay; settings: for Therapeutic Index (CC50/IC50): calculated using the median IC50 across all three isolates
[7] = system: HIV-1 93MW965; test: Replication of primary isolate in PBMCs; format: cell-based; settings: read-out: IC50 HIV-1 93MW965 Clade C; primary human PBMCs
[8] = system: HIV-1 pseudovirus CA Q63A; test: organism not typed; format: cell-based; settings: for IC50: read-out: IC50, CA Q63A virus
[9] = system: VSV-G pseudotyped HIV-1 in TZM-bl cells; format: cell-based
[10] = system: HIV-1JR-FL envelope pseudotyped virus; test: Single-round infection assay, early-stage events; settings: compound present at infection of target cells, luciferase
[11] = system: HIV-1 pseudovirus CA N74D; test: organism not typed; format: cell-based; settings: for IC50: read-out: IC50, CA N74D virus
[12] = system: HIV-1 pseudovirus CA N57A; test: organism not typed; format: cell-based; settings: for IC50: read-out: IC50, CA N57A virus
[13] = system: HIV-1 isolates from subtypes A, B, and C; test: Replication in PBMCs, summary over the three isolates tested; format: cell-based; settings: read-out: Median IC50
[14] = system: HIV-1 pseudovirus CA P90A; test: organism not typed; format: cell-based; settings: for IC50: read-out: IC50, CA P90A virus
[15] = biological target: HIV-1 NL4-3 disulfide stabilized CA hexamer (HIV-1 NL4-3); test: SPR
[16] = Toxicity to PBMCs, MTS assay; settings: human, primary peripheral blood mononuclear cells (PBMCs)
[17] = system: HIV-1JR-FL Envpseudotyped viruses; test: Viral production by p24 quantitation; format: cell-based; settings: 20 μM, relative to DMSO
[18] = system: HIV-1JR-FLEnv infected U87.CD4.CCR5 cells; test: Q-PCR analysis of viral DNA; format: cell-based; settings: CX06 15 μM
[19] = system: AMLV Envpseudotyped HIV-1; format: cell-based; settings: single round infection assay
[20] = system: U87.CD4. cells; format: cell-based, human
[21] = system: 293T cells; format: cell-based, human
[22] = biological target: HIV-1 CA (Human immunodeficiency virus type 1 group M subtype B, UniProt P12493); settings: capsid 30 μM, compound 50 μM, compared to DMSO
[23] = system: VSV-pseudotyped HIV-1 virus; format: cell-based
[24] = Human immunodeficiency virus 1, PBMC

## Cc1[nH]c2ccccc2c1CC(=O)N[C@@H](Cc1ccccc1)C(=O)N(C)c1ccccc1 [PF-74, reference compound]
[1]
  IC50: 0.6 ± 0.2 µM
[2]
  IC50: 1.5 ± 0.9 µM
[3]
  Effect on RT activity in vitro: no effect on RT activity
[4]; single-round infection
  IC50: 0.25 ± 0.08 µM
[5]; single-round infection
  IC50: 0.22 ± 0.05 µM
[6]; MTS assay, PBMCs
  CC50: 90.5 ± 5.9 µM
[7]
  IC50: 0.6 ± 0.1 µM
[8]; single-round infection
  IC50: 0.4 ± 0.05 µM
[9]
  Nuclear import of INsfGFP complexes: efficiently inhibited the appearance of INsfGFP spots in the nucleus
[10]
  Effect on early-stage events, infectivity of target cells: dual-stage inhibition profile
[11]; single-round infection
  IC50: 0.5 ± 0.1 µM
[12]; single-round infection
  IC50: 0.25 ± 0.04 µM
[13]; over the three isolates tested, PBMCs
  IC50: 0.9 ± 0.5 µM
[14]; single-round infection
  IC50: 0.21 ± 0.04 µM

## NUP153 1407-1423 peptide (from UniProt P49790 1407-1423)
[15]
  Kd: 202 µM

## CC(C)c1nc2c(n1CC(=O)NC(Cc1ccccc1)C(=O)N(C)c1ccccc1)CCCC2 (stereo not shown) [CX03, 2-(2-(2-isopropyl-4,5,6,7-tetrahydro-1H-benzo[d]imidazol-1-yl)acetamido)-N-methyl-N,3-diphenylpropanamide]
[6]
  Therapeutic Index (CC50/IC50): >16.9
[16]
  CC50: > 100 µM
[13]; [24]
  IC50: 5.9 ± 0.9 µM

## CCn1ncc(CC(=O)NC(Cc2ccccc2)C(=O)N(C)c2ccccc2)c1C(F)F (stereo not shown) [CX06, 2-(2-(5-(difluoromethyl)-1-ethyl-1H-pyrazol-4-yl)acetamido)-N-methyl-N,3-diphenylpropanamide]
[17]
  Viral production, p24 content: decreasing the amount of virus released from the cells
[3]
  Effect on RT activity in vitro: no effect on RT activity
[18]; 24 h
  2-LTR circles: significantly affected
[18]; 48 h
  Early RT products (RU5): slightly diminished
  Integrated pro-virus (Alu-PCR): significantly affected
  Late RT products (U5Ψ): significantly affected
[4]; IC50 relative to wild-type
  Fold increase, CA K70A virus: 1.03
[4]
  IC50: 3.2 ± 0.3 µM
[5]; IC50 relative to wild-type
  Fold increase, Wild-type virus: 1
[5]
  IC50: 3.1 ± 0.5 µM
[6]
  Therapeutic Index (CC50/IC50): >17.0
[16]
  CC50: > 100 µM
[8]; IC50 relative to wild-type
  Fold increase, CA Q63A virus: 6.9
[8]
  IC50: 21.4 ± 1.4 µM
[9]
  Nuclear import of INsfGFP complexes: efficiently inhibited the appearance of INsfGFP spots in the nucleus
[19]
  Inhibition of AMLV Env pseudotyped HIV-1 infection: almost identical potency as when the HIV-1JR-FLEnv was used
[20]
  Cytotoxicity: not cytotoxic
[21]
  Cytotoxicity: not cytotoxic
[22]
  Effect on capsid assembly, turbidity at 350 nm: reduced the multimerization of HIV-1 CA
[11]; IC50 relative to wild-type
  Fold increase, CA N74D virus: 0.8
[11]
  IC50: 2.4 ± 0.7 µM
[12]; IC50 relative to wild-type
  Fold increase, CA N57A virus: 1.4
[12]
  IC50: 4.3 ± 0.5 µM
[13]; [24]
  IC50: 5.9 ± 1 µM
[23]
  Time of addition at which compound is effective: ≤ 6 hours post-infection
[14]; IC50 relative to wild-type
  Fold increase, CA P90A virus: 1
[14]
  IC50: 3.1 ± 0.5 µM

## Cc1ccnc2c1NC(=O)c1cccnc1N2C1CC1 [Nevirapine]
[9]
  Nuclear import of INsfGFP complexes: without effect

## CN(C(=O)C(Cc1ccccc1)NC(=O)Cc1cnn(C)c1C(F)(F)F)c1ccccc1 (stereo not shown) [CX05, N-methyl-2-(2-(1-methyl-5-(trifluoromethyl)-1H-pyrazol-4-yl)acetamido)-N,3-diphenylpropanamide]
[6]
  Therapeutic Index (CC50/IC50): >5.58
[16]
  CC50: > 100 µM
[13]; [24]
  IC50: 18 ± 4.6 µM

## CN(C(=O)C(Cc1ccccc1)NC(=O)Cc1cnn(C(F)F)c1)c1ccccc1 (stereo not shown) [CX04, 2-(2-(1-(difluoromethyl)-1H-pyrazol-4-yl)acetamido)-N-methyl-N,3-diphenylpropanamide]
[6]
  Therapeutic Index (CC50/IC50): >5.84
[16]
  CC50: > 100 µM
[13]; [24]
  IC50: 17.1 ± 2.7 µM
